Consider 17 molecules from US10239832B2, “N-(1-hydroxy-3-(pyrrolidinyl)propan-2-yl)pyrrolidine-3-carboxamide derivatives as glucosylceramide synthase inhibitors” (BIOMARIN PHARMACEUTICAL INC., priority 2013, dated 2019).

SMILES strings stand for the structures.

As usually defined, the IC50 is the concentration that inhibits the measured activity by half.

For this experiment, the target named is T1, GCS (Canis lupus familiaris, UniProt A0A8I3MXG6).
T1 construct: endogenous in cells; host or cells: MDCK (Madin-Darby canine kidney) cells, whole-cell lysate
T1 sequence (A0A8I3MXG6 1-394): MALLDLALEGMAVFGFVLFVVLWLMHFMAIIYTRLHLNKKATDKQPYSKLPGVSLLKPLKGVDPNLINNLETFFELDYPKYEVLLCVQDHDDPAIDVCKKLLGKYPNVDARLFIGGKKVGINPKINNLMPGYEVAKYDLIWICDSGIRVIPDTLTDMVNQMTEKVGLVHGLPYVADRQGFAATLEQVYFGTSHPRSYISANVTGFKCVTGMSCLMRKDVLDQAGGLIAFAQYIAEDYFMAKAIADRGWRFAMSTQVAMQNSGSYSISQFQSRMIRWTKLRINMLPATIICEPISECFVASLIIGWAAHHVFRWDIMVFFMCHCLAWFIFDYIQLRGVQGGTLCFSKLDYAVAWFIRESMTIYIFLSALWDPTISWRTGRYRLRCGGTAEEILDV
The experiment can be described thus: GCS enzymatic assay (MDCK cell lysate, NBD-ceramide to glucosylceramide, LC/MS). The experiment is classed as biochemical, canine. Conditions: Table 2, the table does not say which of the assays; for Data Range (% inhibition): class symbols D, E, F, NA (not active); for IC50: class symbols A, B, C, read-out: Data Range (IC50 values). Put shortly:
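Dog MDCK cell lysate served as enzyme source, with NBD-ceramide turned over to glucosylceramide and 0.1% DMSO as mock control. The reaction was stopped with acetonitrile. Both lipids were quantified by LC/MS/MS in ESI positive MRM mode against a tolbutamide internal standard, giving IC50 or percent inhibition.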

Take `Cn1ncc2cc(N3CC[C@@H](C(=O)N[C@H](CN4CCCC4)[C@H](O)c4cc(F)c5c(c4)OCCO5)C3)ccc21` [Compound 125, (R)-N-((1R,2R)-1-(8-fluoro-2,3-dihydrobenzo[b][1,4]dioxin-6-yl)-1-hydroxy-3-(pyrrolidin-1-yl)propan-2-yl)-1-(1-methyl-1H-indazol-5-yl)pyrrolidine-3-carboxamide]: the “Data Range (% inhibition)” value is listed as “E (50-74% (or less than 75%))”.

In the case of `O=C(N[C@H](CN1CCCC1)[C@H](O)c1ccc(OC2CC2)c(Cl)c1)[C@@H]1CCN(c2cccc(-c3ccc(F)cc3)n2)C1` [Compound 126, (R)-N-((1R,2R)-1-(3-chloro-4-cyclopropoxyphenyl)-1-hydroxy-3-(pyrrolidin-1-yl)propan-2-yl)-1-(6-(4-fluorophenyl)pyridin-2-yl)pyrrolidine-3-carboxamide], the concentration for half-maximal inhibition (IC50) lay in the range of 1 to 30 nM.

For the molecule `Cn1ncc2cc(N3CC[C@@H](C(=O)N[C@H](CN4CCCC4)[C@H](O)c4ccc(OC5CC5)c(Cl)c4)C3)ccc21` [Compound 127, (R)-N-((1R,2R)-1-(3-chloro-4-cyclopropoxyphenyl)-1-hydroxy-3-(pyrrolidin-1-yl)propan-2-yl)-1-(1-methyl-1H-indazol-5-yl)pyrrolidine-3-carboxamide], the “Data Range (% inhibition)” value is given as “E (50-74% (or less than 75%))”.

Consider `O=C(N[C@H](CN1CCCC1)[C@H](O)c1ccc(OC2CC2)c(Cl)c1)[C@@H]1CCN(c2ccc(Cl)c(Oc3ccc(F)cc3)c2)C1` [Compound 128, (R)-1-(4-chloro-3-(4-fluorophenoxy)phenyl)-N-((1R,2R)-1-(3-chloro-4-cyclopropoxyphenyl)-1-hydroxy-3-(pyrrolidin-1-yl)propan-2-yl)pyrrolidine-3-carboxamide], for which the IC50 lay within 1 to 30 nM.

In the case of `O=C(N[C@H](CN1CCCC1)[C@H](O)c1ccc(OC2CC2)c(Cl)c1)[C@@H]1CCN(C(=O)c2ccccc2)C1` [Compound 129, (R)-1-benzoyl-N-((1R,2R)-1-(3-chloro-4-cyclopropoxyphenyl)-1-hydroxy-3-(pyrrolidin-1-yl)propan-2-yl)pyrrolidine-3-carboxamide], the “Data Range (% inhibition)” value is reported as “F (1-49% (or less than 50%))”.

Take `O=C(N[C@H](CN1CCCC1)[C@H](O)c1ccc2c(c1F)OCCO2)[C@@H]1CCN(c2ccc(Cl)cc2)C1` [Compound 130, (R)-1-(4-chlorophenyl)-N-((1R,2R)-1-(5-fluoro-2,3-dihydrobenzo[b][1,4]dioxin-6-yl)-1-hydroxy-3-(pyrrolidin-1-yl)propan-2-yl)pyrrolidine-3-carboxamide]: the “Data Range (% inhibition)” value is “E (50-74% (or less than 75%))”.

As to `Cc1cccc(Oc2cc(N3CC[C@@H](C(=O)N[C@H](CN4CCCC4)[C@H](O)c4ccc(OC5CC5)c(Cl)c4)C3)ccc2Cl)n1` [Compound 131, (R)-1-(4-chloro-3-((6-methylpyridin-2-yl)oxy)phenyl)-N-((1R,2R)-1-(3-chloro-4-cyclopropoxyphenyl)-1-hydroxy-3-(pyrrolidin-1-yl)propan-2-yl)pyrrolidine-3-carboxamide], the IC50 was 1 to 30 nM.

For `Cn1ncc2ccc(N3CC[C@@H](C(=O)N[C@H](CN4CCCC4)[C@H](O)c4cc(F)c5c(c4)OCCO5)C3)cc21` [Compound 132, (R)-N-((1R,2R)-1-(8-fluoro-2,3-dihydrobenzo[b][1,4]dioxin-6-yl)-1-hydroxy-3-(pyrrolidin-1-yl)propan-2-yl)-1-(1-methyl-1H-indazol-6-yl)pyrrolidine-3-carboxamide], the IC50 lay within 1 to 30 nM.

With `Cn1ncc2ccc(N3CC[C@@H](C(=O)N[C@H](CN4CCCC4)[C@H](O)c4ccc(OC5CC5)c(Cl)c4)C3)cc21` [Compound 133, (R)-N-((1R,2R)-1-(3-chloro-4-cyclopropoxyphenyl)-1-hydroxy-3-(pyrrolidin-1-yl)propan-2-yl)-1-(1-methyl-1H-indazol-6-yl)pyrrolidine-3-carboxamide], the half-inhibitory concentration (IC50) was 1 to 30 nM.

For the molecule `Cn1ncc2ccc(N3CC[C@@H](C(=O)N[C@H](CN4CCC4)[C@H](O)c4cc(F)c5c(c4)OCCO5)C3)cc21` [Compound 134, (R)-N-((1R,2R)-3-(azetidin-1-yl)-1-(8-fluoro-2,3-dihydrobenzo[b][1,4]dioxin-6-yl)-1-hydroxypropan-2-yl)-1-(1-methyl-1H-indazol-6-yl)pyrrolidine-3-carboxamide], the IC50 is 1 to 30 nM.

Regarding `CC(C)(C)Oc1ccc([C@@H](O)[C@@H](CN2CCCC2)NC(=O)[C@@H]2CCN(c3ccc(Cl)cc3)C2)cc1Cl` [Compound 135, (R)-N-((1R,2R)-1-(4-(tert-butoxy)-3-chlorophenyl)-1-hydroxy-3-(pyrrolidin-1-yl)propan-2-yl)-1-(4-chlorophenyl)pyrrolidine-3-carboxamide], the IC50 was 1 to 30 nM.

Regarding `O=C(N[C@H](CN1CCCC1)[C@H](O)c1ccc(OC2CC2)c(Cl)c1)[C@@H]1CCN(c2ccc(Cl)c(OC3CCCCC3)c2)C1` [Compound 136, (R)-1-(4-chloro-3-(cyclohexyloxy)phenyl)-N-((1R,2R)-1-(3-chloro-4-cyclopropoxyphenyl)-1-hydroxy-3-(pyrrolidin-1-yl)propan-2-yl)pyrrolidine-3-carboxamide], the IC50 is 1 to 30 nM.

`O=C(N[C@H](CN1CCCC1)[C@H](O)c1cc2c(c(C(F)(F)F)c1)OCCO2)[C@@H]1CCN(c2ccc(Cl)cc2)C1` [Compound 137, (R)-1-(4-chlorophenyl)-N-((1R,2R)-1-hydroxy-3-(pyrrolidin-1-yl)-1-(8-(trifluoromethyl)-2,3-dihydrobenzo[b][1,4]dioxin-6-yl)propan-2-yl)pyrrolidine-3-carboxamide]: the half-maximal inhibitory concentration (IC50) was 30 to 100 nM.

With `O=C(N[C@H](CN1CCCC1)[C@H](O)c1ccc(OC2CC2)c(Cl)c1)[C@@H]1CCN(c2ccc(Cl)c(-c3ccc(F)cc3)c2)C1` [Compound 138, (R)-1-(6-chloro-4′-fluoro-[1,1′-biphenyl]-3-yl)-N-((1R,2R)-1-(3-chloro-4-cyclopropoxyphenyl)-1-hydroxy-3-(pyrrolidin-1-yl)propan-2-yl)pyrrolidine-3-carboxamide], the IC50 is 30 to 100 nM.

`CC(C)(C)c1ccc(N2CC[C@@H](C(=O)N[C@H](CN3CCCC3)[C@H](O)c3ccc(OC4CC4)c(Cl)c3)C2)cc1` [Compound 139, (R)-1-(4-(tert-butyl)phenyl)-N-((1R,2R)-1-(3-chloro-4-cyclopropoxyphenyl)-1-hydroxy-3-(pyrrolidin-1-yl)propan-2-yl)pyrrolidine-3-carboxamide]: the IC50 fell in the range of 30 to 100 nM.

Turning to `O=C(N[C@H](CN1CCCC1)[C@H](O)c1ccc(OC2CCC2)c(Cl)c1)[C@@H]1CCN(c2ccc(Cl)cc2)C1` [Compound 140, (R)-N-((1R,2R)-1-(3-chloro-4-cyclobutoxyphenyl)-1-hydroxy-3-(pyrrolidin-1-yl)propan-2-yl)-1-(4-chlorophenyl)pyrrolidine-3-carboxamide], the half-maximal inhibitory concentration (IC50) was 1 to 30 nM.

Regarding `O=C(N[C@H](CN1CCCC1)[C@H](O)c1ccc(OC2CCCC2)c(Cl)c1)[C@@H]1CCN(c2ccc(Cl)cc2)C1` [Compound 141, (R)-N-((1R,2R)-1-(3-chloro-4-(cyclopentyloxy)phenyl)-1-hydroxy-3-(pyrrolidin-1-yl)propan-2-yl)-1-(4-chlorophenyl)pyrrolidine-3-carboxamide], the IC50 was 30 to 100 nM.
